Positions of bridges follow the written chain, without caps; N, C: chain ends. Residues, ends and D or L forms follow the SMILES beside them. No end group written: not given here. *: point of attachment. Myristoyl = CCCCCCCCCCCCCC(=O)*; Lauroyl = CCCCCCCCCCCC(=O)*
Legend:
[1] = Micellar structure formation by transmission electron microscopy; assay type: physicochemical; conditions: uranyl acetate staining, FIG. 1
Text: Small amounts of HD-5, HD-5Myr and HD-5Lau samples were taken and dropped on copper grid used for electron microscope, excessive samples were sucked out with filter paper, after being dried at room temperature, uranyl acetate was used for staining.

MRSA-1 = experiment: Antibacterial activity (LD90, optical density growth kinetics) against MRSA-1; assay type: cell-based, methicillin-resistant Staphylococcus aureus; conditions: for LD90: MRSA-1 isolated in clinic, concentration required for killing 90% bacteria, 2 h incubation at 37° C.
Protocol: (§1) According to measurement of antibacterial activity of antibacterial peptides, the antibacterial potencies of the variants HD-5Myr, HD-Lau and MyrHD-5 of HD-5 as synthesized in Example 2 as well as natural HD-5 were compared.
(§2) The experiments were carried out according to the method for detecting antibacterial activity of antibacterial peptide as reported by Ericksen et al in 2005 (Ericksen B, et al., Antibacterial activity and specificity of the six human {alpha}-defensins. Antimicrob Agents Chemother, 2005).
Bacteria were inoculated on LB agar plate, and placed in 37° C. constant temperature incubator until bacterial colonies grew. Single colony was picked out, inoculated in 5 ml of LB culture media, and shake cultured at constant temperature of 37° C. for 4-6 h. It was then washed with sterile water twice. Optical density at 600 nm was measured with ELIASA, 1 OD600=4×10^8 CFU/ml, and the bacteria to be tested were diluted with sterile water to 2×10^6 CFU/ml.
To a sterile 96-plate, 50 μl of sterile water was added to each well, and then A1 well was added with an antibacterial peptide HD-5 sample diluted to a certain concentration. After being mixed evenly, 50 μl was taken therefrom and added to A2 well, thereby being diluted in multiple proportion manner in order, and 50 μl was sucked out from A6 well and discarded. By using the same method, MyrHD-5, HD-5Myr and HD-5Lau samples were diluted. The control well was 50 μl sterile water. Then, to each well, 50 μl of 2×10^6 CFU/ml bacteria was added, and shake cultured at constant temperature of 37° C. for 2 h. Then, 100 μl of LB culture media with double concentration was added separately. Optical density values at 600 nm were measured every 5 minutes in ELIASA at constant temperature of 37° C.
(§3) The measured optical density value minus the optical density value at time 0, and logarithm thereof was taken. […] According to this linear rule, bactericidal rates for different groups were calculated. […]

S. aureus ATCC 25923 = experiment: Antibacterial activity (LD90, optical density growth kinetics) against S. aureus ATCC 25923; assay type: cell-based, Staphylococcus aureus; conditions: concentration required for killing 90% bacteria, 2 h incubation at 37° C.
Protocol: as §1, §2
(§4) Bacteria were inoculated on LB agar plate, and placed in 37° C. constant temperature incubator until bacterial colonies grew. […] Optical density at 600 nm was measured with ELIASA, 1 OD600=4×10^8 CFU/ml, and the bacteria to be tested were diluted with sterile water to 2×10^6 CFU/ml.
(§5) To a sterile 96-plate, 50 μl of sterile water was added to each well, and then A1 well was added with an antibacterial peptide HD-5 sample diluted to a certain concentration. […] Optical density values at 600 nm were measured every 5 minutes in ELIASA at constant temperature of 37° C.
as §3

THP-1 cells = experiment: Release of IL-1β mature body from LPS-stimulated THP-1 macrophages (immunoblotting); assay type: cell-based; conditions: LPS 100 ng/ml 3 h, FIG. 4
Protocol: THP-1 cells were cultured with RPMI-1640 culture media added with 10% fetal calf serum, and then inoculated on 24-well plate during logarithmic phase, 10^6 cells per well, added with PMA with final concentration of 100 nM for stimulating for 12 h so that cell adhered wall.
Media was exchanged with […] added with 10% fetal calf serum, and stood for 24 hours.
The following groups were set: blank group, LPS stimulation group, LPS+5 mM ATP group (positive control group), LPS+HD-5 group, LPS+HD-5Myr group, LPS+HD-5Lau group. 100 ng/ml lipopolysaccharide (LPS) was used or not to perform stimulation for 3 h, then gently washed twice with 1640 culture media, and then added or not with HD-5Myr or HD-5Lau with final concentration of 10 μg/ml and 20 μg/ml, or ATP with final concentration of 5 mM, or HD-5 with final concentration of 100 μg/ml and 200 μg/ml; and supernatant of each group was collected.
The proteins in supernatant in same volume were concentrated, lysed with protein lysis solution, and then release conditions of IL-1β mature body for different groups were compared by immunoblotting method.

E. coli ATCC 25922 = experiment: Antibacterial activity (LD90, optical density growth kinetics) against E. coli ATCC 25922; assay type: cell-based, Escherichia coli; conditions: concentration required for killing 90% bacteria, 2 h incubation at 37° C.
Protocol: as §1, §2, §4, §5, §3

human red cells = experiment: Hemolysis of human red cells; assay type: cell-based; conditions: 25 μg/ml; 4% human red cells, 37° C., 1 h; 10% Triton X-100 = 100% hemolysis; FIG. 3
Protocol: The hemolysis effects of antibacterial peptide HD-5 as well as its variants HD-5Myr and HD-5Lau on human red cell were measured.
Fresh human blood sample was collected, heparinized then centrifuged to take red cell layer;
washed with PBS for 3 times;
to EP tube, HD-5 and its variants with final concentrations of 50 μg/ml and 25 μg/ml were added separately; the positive control was added with 10% Triton X-100 in same volume, while the negative control was added with PBS in same volume.
4% human red cells were added separately, incubated at 37° C. for 1 h;
centrifuged, supernatant in same volume was taken and placed in 96-well plate, OD value at 540 nm was measured; by using the positive control as 100% hemolysis, and using the negative control as 0% hemolysis, the hemolysis rate for each well was calculated: Red cell hemolysis rate %=Test well OD value−negative control well OD valuePositive control well OD value−negative control OD×100%

Compound | LD90 (MRSA-1) [µg/mL] | LD90 (S. aureus ATCC 25923) [µg/mL] | LD90 (E. coli ATCC 25922) [µg/mL] | hemolysis rate (human red cells) [%] | other results
Human defensin-5 (ATCYCRTGRCATRESLSGVCEISGRLYRLCCR; disulfide 10-30, 5-20, 3-31; listed as Homo sapiens) [HD-5, the modification template] | 5.850 | >12.5 | 6.691 |  | Formation of micellar structure [1]: micellar structure was not observed; LD90 against methicillin-resistant Staphylococcus aureus compared with LD90 against Staphylococcus aureus ATCC 25923 (MRSA-1; MRSA versus S. aureus ATCC 25923): far lower; Release of IL-1β mature body (THP-1 cells; then peptide at 100 μg/ml and 200 μg/ml): could promote the release of IL-1β mature body
Nc1ncnc2c1ncn2[C@@H]1O[C@H](COP(=O)(O)OP(=O)(O)OP(=O)(O)O)[C@@H](O)[C@H]1O [ATP] |  |  |  |  | Release of IL-1β mature body (THP-1 cells; then 5 mM ATP (positive control)): exhibited release of IL-1β mature body
CCCCCCCCCCCCCC(=O)NCCCC[C@H](NC(=O)CNC(=O)[C@H](CCCNC(=N)N)NC(=O)[C@@H]1CSSC[C@H](NC(=O)[C@@H](NC(=O)[C@H](C)N)[C@@H](C)O)C(=O)N[C@@H](Cc2ccc(O)cc2)C(=O)N[C@H]2CSSC[C@@H]3NC(=O)[C@H](C(C)C)NC(=O)CNC(=O)[C@H](CO)NC(=O)[C@H](CC(C)C)NC(=O)[C@H](CO)NC(=O)[C@H](CCC(=O)O)NC(=O)[C@H](CCCNC(=N)N)NC(=O)[C@H]([C@@H](C)O)NC(=O)[C@H](C)NC(=O)[C@H](CSSC[C@H](NC(=O)[C@H](CC(C)C)NC(=O)[C@H](CCCNC(=N)N)NC(=O)[C@H](Cc4ccc(O)cc4)NC(=O)[C@H](CC(C)C)NC(=O)[C@H](CCCNC(=N)N)NC(=O)CNC(=O)[C@H](CO)NC(=O)[C@H]([C@@H](C)CC)NC(=O)[C@H](CCC(=O)O)NC3=O)C(=O)N1)NC(=O)[C@H](CCCNC(=N)N)NC(=O)CNC(=O)[C@H]([C@@H](C)O)NC(=O)[C@H](CCCNC(=N)N)NC2=O)C(N)=O [HD-5Myr] (H-ATCYCRTGRCATRESLSGVCEISGRLYRLCCRGK(Myristoyl)-NH2; disulfide 3-31, 5-20, 10-30) |  |  |  | 6.83 | 
CCCCCCCCCCCC(=O)NCCCC[C@H](NC(=O)CNC(=O)[C@H](CCCNC(=N)N)NC(=O)[C@@H]1CSSC[C@H](NC(=O)[C@@H](NC(=O)[C@H](C)N)[C@@H](C)O)C(=O)N[C@@H](Cc2ccc(O)cc2)C(=O)N[C@H]2CSSC[C@@H]3NC(=O)[C@H](C(C)C)NC(=O)CNC(=O)[C@H](CO)NC(=O)[C@H](CC(C)C)NC(=O)[C@H](CO)NC(=O)[C@H](CCC(=O)O)NC(=O)[C@H](CCCNC(=N)N)NC(=O)[C@H]([C@@H](C)O)NC(=O)[C@H](C)NC(=O)[C@H](CSSC[C@H](NC(=O)[C@H](CC(C)C)NC(=O)[C@H](CCCNC(=N)N)NC(=O)[C@H](Cc4ccc(O)cc4)NC(=O)[C@H](CC(C)C)NC(=O)[C@H](CCCNC(=N)N)NC(=O)CNC(=O)[C@H](CO)NC(=O)[C@H]([C@@H](C)CC)NC(=O)[C@H](CCC(=O)O)NC3=O)C(=O)N1)NC(=O)[C@H](CCCNC(=N)N)NC(=O)CNC(=O)[C@H]([C@@H](C)O)NC(=O)[C@H](CCCNC(=N)N)NC2=O)C(N)=O [HD-5Lau] (H-ATCYCRTGRCATRESLSGVCEISGRLYRLCCRGK(Lauroyl)-NH2; disulfide 3-31, 5-20, 10-30) |  |  |  | 2.24 | 
MyrHD-5: 33-residue N-terminally modified HD-5 variant (SEQ ID NO: 3), Gly1 amino group linked to a myristoyl (Myristoyl-GATCYCRTGRCATRESLSGVCEISGRLYRLCCR; disulfide 11-31, 6-21, 4-32) | 1.400 | 6.280 | >12.5 |  | 

Reference: US10087219B2, “Human alpha-defensin 5 variant and uses thereof” (priority 2016, dated 2018)
